Laboratory results as given in ChEMBL document CHEMBL3885881, “DrugMatrix”.

Organism: Rattus norvegicus
Experiment: DrugMatrix - Regimen: Daily Repeat
Format: toxicity, organism-based, Sprague-Dawley
Set-up: regimen Daily Repeat, gender Male, age 6-8 weeks
Conditions: in vivo, po, route oral GAVAGE, vehicle .5 % CMC; for ABSOLUTE BASOPHIL / ABSOLUTE EOSINOPHIL / ABSOLUTE LYMPHOCYTE / ABSOLUTE MONOCYTE / ABSOLUTE SEGMENTED NEUTROPHIL / BASOPHIL / EOSINOPHIL / ERYTHROCYTE COUNT / HEMATOCRIT / HEMOGLOBIN / LEUKOCYTE COUNT / LYMPHOCYTE / MEAN CORPUSCULAR HEMOGLOBIN / MEAN CORPUSCULAR HEMOGLOBIN CONCENTRATION / MEAN CORPUSCULAR VOLUME / MONOCYTE / NEUTROPHIL / NUCLEATED RED BLOOD CELLS / PLATELET COUNT: tissue Blood; for ALANINE AMINOTRANSFERASE / ALBUMIN / ALKALINE PHOSPHATASE / ASPARTATE AMINOTRANSFERASE / BLOOD UREA NITROGEN / CARBON DIOXIDE / CHLORIDE / CHOLESTEROL / CREATINE PHOSPHOKINASE / CREATININE / GLUCOSE / LACTATE DEHYDROGENASE / LIPASE / PHOSPHORUS / POTASSIUM / SODIUM / TOTAL BILIRUBIN / TOTAL PROTEIN / URIC ACID: tissue Plasma
[1] = 10 mg/kg, 72 h, dose level Low, time 3 day
[2] = 10 mg/kg, 120 h, dose level Low, time 5 day
[3] = 1500 mg/kg, 72 h, dose level High, time 3 day
[4] = 1500 mg/kg, 120 h, dose level High, time 5 day

NS(=O)(=O)c1cc2c(cc1Cl)NCNS2(=O)=O [HYDROCHLOROTHIAZIDE]
ABSOLUTE BASOPHIL [1]: 0 CELLS/uL
ABSOLUTE EOSINOPHIL [1]: 69 CELLS/uL
ABSOLUTE LYMPHOCYTE [1]: 10610.67 CELLS/uL
ABSOLUTE MONOCYTE [1]: 107.67 CELLS/uL
ABSOLUTE SEGMENTED NEUTROPHIL [1]: 3446 CELLS/uL
BASOPHIL [1]: 0%
EOSINOPHIL [1]: 0.33%
ERYTHROCYTE COUNT [1]: 5.79 x10E6/uL
HEMATOCRIT [1]: 34.73%
HEMOGLOBIN [1]: 13.77 G/DL
LEUKOCYTE COUNT [1]: 14.23 x10E3/uL
LYMPHOCYTE [1]: 77.33%
MEAN CORPUSCULAR HEMOGLOBIN [1]: 23.8 pg
MEAN CORPUSCULAR HEMOGLOBIN CONCENTRATION [1]: 39.67 G/DL
MEAN CORPUSCULAR VOLUME [1]: 60.07 fL
MONOCYTE [1]: 1%
NEUTROPHIL [1]: 21.33%
NUCLEATED RED BLOOD CELLS [1]: 0 /100WBC
PLATELET COUNT [1]: 1306 x10E3/uL
ALANINE AMINOTRANSFERASE [1]: 49 u/L
ALBUMIN [1]: 4.17 G/DL
ALKALINE PHOSPHATASE [1]: 352 u/L
ASPARTATE AMINOTRANSFERASE [1]: 90.67 u/L
BLOOD UREA NITROGEN [1]: 14.33 mg/dL
CARBON DIOXIDE [1]: 24.33 mmol/L
CHLORIDE [1]: 103 MEQ/L
CHOLESTEROL [1]: 65.67 mg/dL
CREATINE PHOSPHOKINASE [1]: 517.67 u/L
CREATININE [1]: 0.15 mg/dL
GLUCOSE [1]: 149.33 mg/dL
LACTATE DEHYDROGENASE [1]: 306.67 u/L
LIPASE [1]: 10 u/L
PHOSPHORUS [1]: 12.73 mg/dL
POTASSIUM [1]: 6.56 MEQ/L
SODIUM [1]: 144.2 MEQ/L
TOTAL BILIRUBIN [1]: 0.2 mg/dL
TOTAL PROTEIN [1]: 5.87 G/DL
URIC ACID [1]: 2.5 mg/dL
ABSOLUTE BASOPHIL [2]: 0 CELLS/uL
ABSOLUTE EOSINOPHIL [2]: 0 CELLS/uL
ABSOLUTE LYMPHOCYTE [2]: 12129.67 CELLS/uL
ABSOLUTE MONOCYTE [2]: 37.67 CELLS/uL
ABSOLUTE SEGMENTED NEUTROPHIL [2]: 1466 CELLS/uL
BASOPHIL [2]: 0%
EOSINOPHIL [2]: 0%
ERYTHROCYTE COUNT [2]: 5.92 x10E6/uL
HEMATOCRIT [2]: 36.07%
HEMOGLOBIN [2]: 14.23 G/DL
LEUKOCYTE COUNT [2]: 13.63 x10E3/uL
LYMPHOCYTE [2]: 89.67%
MEAN CORPUSCULAR HEMOGLOBIN [2]: 24.03 pg
MEAN CORPUSCULAR HEMOGLOBIN CONCENTRATION [2]: 39.47 G/DL
MEAN CORPUSCULAR VOLUME [2]: 60.83 fL
MONOCYTE [2]: 0.33%
NEUTROPHIL [2]: 10%
NUCLEATED RED BLOOD CELLS [2]: 0 /100WBC
PLATELET COUNT [2]: 1189.67 x10E3/uL
ALANINE AMINOTRANSFERASE [2]: 46 u/L
ALBUMIN [2]: 4.07 G/DL
ALKALINE PHOSPHATASE [2]: 390.67 u/L
ASPARTATE AMINOTRANSFERASE [2]: 89.67 u/L
BLOOD UREA NITROGEN [2]: 13.67 mg/dL
CARBON DIOXIDE [2]: 25.33 mmol/L
CHLORIDE [2]: 101.67 MEQ/L
CHOLESTEROL [2]: 62 mg/dL
CREATINE PHOSPHOKINASE [2]: 269.33 u/L
CREATININE [2]: 0.2 mg/dL
GLUCOSE [2]: 162.33 mg/dL
LACTATE DEHYDROGENASE [2]: 281.67 u/L
LIPASE [2]: 9 u/L
PHOSPHORUS [2]: 11.27 mg/dL
POTASSIUM [2]: 6.59 MEQ/L
SODIUM [2]: 143.33 MEQ/L
TOTAL BILIRUBIN [2]: 0.17 mg/dL
TOTAL PROTEIN [2]: 5.83 G/DL
URIC ACID [2]: 2 mg/dL
ABSOLUTE BASOPHIL [3]: 0 CELLS/uL
ABSOLUTE EOSINOPHIL [3]: 0 CELLS/uL
ABSOLUTE LYMPHOCYTE [3]: 11188.67 CELLS/uL
ABSOLUTE MONOCYTE [3]: 0 CELLS/uL
ABSOLUTE SEGMENTED NEUTROPHIL [3]: 1278 CELLS/uL
BASOPHIL [3]: 0%
EOSINOPHIL [3]: 0%
ERYTHROCYTE COUNT [3]: 5.96 x10E6/uL
HEMATOCRIT [3]: 35.57%
HEMOGLOBIN [3]: 13.93 G/DL
LEUKOCYTE COUNT [3]: 12.47 x10E3/uL
LYMPHOCYTE [3]: 90%
MEAN CORPUSCULAR HEMOGLOBIN [3]: 23.43 pg
MEAN CORPUSCULAR HEMOGLOBIN CONCENTRATION [3]: 39.2 G/DL
MEAN CORPUSCULAR VOLUME [3]: 59.7 fL
MONOCYTE [3]: 0%
NEUTROPHIL [3]: 10%
NUCLEATED RED BLOOD CELLS [3]: 0.67 /100WBC
PLATELET COUNT [3]: 1140 x10E3/uL
ALANINE AMINOTRANSFERASE [3]: 52.67 u/L
ALBUMIN [3]: 4.17 G/DL
ALKALINE PHOSPHATASE [3]: 353.33 u/L
ASPARTATE AMINOTRANSFERASE [3]: 88.33 u/L
BLOOD UREA NITROGEN [3]: 19 mg/dL
CARBON DIOXIDE [3]: 31 mmol/L
CHLORIDE [3]: 95.33 MEQ/L
CHOLESTEROL [3]: 70.67 mg/dL
CREATININE [3]: 0.2 mg/dL
GLUCOSE [3]: 159.33 mg/dL
LACTATE DEHYDROGENASE [3]: 413 u/L
LIPASE [3]: 9.67 u/L
PHOSPHORUS [3]: 11.27 mg/dL
POTASSIUM [3]: 5.57 MEQ/L
SODIUM [3]: 141.57 MEQ/L
TOTAL BILIRUBIN [3]: 0.17 mg/dL
TOTAL PROTEIN [3]: 5.8 G/DL
URIC ACID [3]: 1.43 mg/dL
ABSOLUTE BASOPHIL [4]: 0 CELLS/uL
ABSOLUTE EOSINOPHIL [4]: 84 CELLS/uL
ABSOLUTE LYMPHOCYTE [4]: 12827 CELLS/uL
ABSOLUTE MONOCYTE [4]: 104 CELLS/uL
ABSOLUTE SEGMENTED NEUTROPHIL [4]: 1585 CELLS/uL
BASOPHIL [4]: 0%
EOSINOPHIL [4]: 0.67%
ERYTHROCYTE COUNT [4]: 5.59 x10E6/uL
HEMATOCRIT [4]: 33.87%
HEMOGLOBIN [4]: 13.63 G/DL
LEUKOCYTE COUNT [4]: 14.6 x10E3/uL
LYMPHOCYTE [4]: 88%
MEAN CORPUSCULAR HEMOGLOBIN [4]: 24.4 pg
MEAN CORPUSCULAR HEMOGLOBIN CONCENTRATION [4]: 40.23 G/DL
MEAN CORPUSCULAR VOLUME [4]: 60.63 fL
MONOCYTE [4]: 0.67%
NEUTROPHIL [4]: 10.67%
NUCLEATED RED BLOOD CELLS [4]: 0 /100WBC
PLATELET COUNT [4]: 1221.67 x10E3/uL
ALANINE AMINOTRANSFERASE [4]: 64.67 u/L
ALBUMIN [4]: 4.33 G/DL
ALKALINE PHOSPHATASE [4]: 393 u/L
ASPARTATE AMINOTRANSFERASE [4]: 80 u/L
BLOOD UREA NITROGEN [4]: 20 mg/dL
CARBON DIOXIDE [4]: 31.33 mmol/L
CHLORIDE [4]: 97 MEQ/L
CHOLESTEROL [4]: 69 mg/dL
CREATINE PHOSPHOKINASE [4]: 157.67 u/L
CREATININE [4]: 0.2 mg/dL
GLUCOSE [4]: 153.33 mg/dL
LACTATE DEHYDROGENASE [4]: 110.33 u/L
LIPASE [4]: 10 u/L
PHOSPHORUS [4]: 12.1 mg/dL
POTASSIUM [4]: 6.18 MEQ/L
SODIUM [4]: 144.7 MEQ/L
TOTAL BILIRUBIN [4]: 0.2 mg/dL
TOTAL PROTEIN [4]: 5.97 G/DL
URIC ACID [4]: 1.57 mg/dL
